Here are results for six molecules from patent US10874719B2, “Nucleotide phosphate dissipation as a treatment for vascular disorders” (THE REGENTS OF THE UNIVERSITY OF MICHIGAN, priority 2007, dated 2020).

One assay deals with IFN-γ and IL-2 mRNA. As to the kind of experiment: Tracheal allograft T-helper 1 cytokine mRNA, real time PCR. It is filed as in vivo, mouse. The conditions noted are these: compared with vehicle; for expression of IFN-γ mRNA: wild type allograft. The source says:
A heterotopic model, characterized by epithelial and subepithelial lymphocyte infiltration by one was also used (Lama, et al, Am J Pathol 169: 47-60, 2006). Donor tracheas were harvested as described above. The trachea was inserted in a subcutaneous pouch created after a 3-mm incision and blunt dissection in the back of the neck. The skin pocket was closed with a size 5.0 nylon suture.
Total RNA was extracted from frozen each mouse tracheas using RNeasy Mini Protocol for Tissues (Qiagen, Valencia, Calif.) and reverse transcribed using a High Capacity cDNA Archive Kit (ABI, Foster City, Calif.), in each case according to the manufacturer's instructions. One microgram of sample RNA was transcribed to cDNA. Real-time PCR was performed on an Applied Biosystems 7000 Real-Time PCR System (ABI) data collection system, and analyses were performed using the accompanying software.
PCR fluorogenic probes for all the target genes and the endogenous reference were purchased as TaqMan® Gene Expression Assays (ABI).
A2A receptor agonist 2-p-(2-carboxyethyl) phenethylamino-5′-N-ethylcarboxamidoadenosine (CGS-21680, 2 mg/kg/day), A2A receptor antagonist 5-Amino-7-(β-phenylethyl)-2-([…])pyrazolo(4,3-e)-1,2,4-triazolo1,5-c pyrimidine (SCH-58261, 2 mg/kg/day), A3 receptor agonist [2-chloro-N^6-(3-iodobenzyl)adenosine-5′-N-methyluronamide (Cl-IBMECA 1 mg/kg/day), A3 receptor antagonist 3-Ethyl 5-benzyl 2-methyl-6-phenyl-4-phenylethynyl-1,4-(±)-dihydropyridine-3,5-dicarboxylate (MRS 1191 2 mg/kg/day) or vehicle (0.1% DMSO in PBS) was administered in a sterile 0.1-ml volume by intraperitoneal injection every 12 hours after surgery. The doses of the adenosine-receptor agonists' were chosen according to previous studies (Erdmann, et al, Blood 105: 4707, 4714, 2005; Hasko, et al, Faseb J 14: 2065-2074, 2000; Satoh, et al, Pancreas 24: 75-82, 2002; Satoh, Gastroenterology 119: 829-836, 2000). The adenosine receptor agonists and antagonists were obtained from Sigma Chemicals (St. Louis, Mo.).

Assay [1] relates to T lymphocytes transmigrating across bEnd.3 endothelial cells. As to the kind of experiment: Allomismatched transmigration coculture of endothelial cells and T lymphocytes. The class given is cell-based, mouse. An excerpt:
(§1) T lymphocytes were purified from splenocytes of CD73^+/+ and CD73^−/− mice (H-2^b) using a Dynal mouse T cell negative isolation kit (Invitrogen). The BALB/c (H-2^d)-derived endothelial cell line bEnd.3 was obtained from American Type Culture Collection (Manassas, Va.).
(§2) To further elucidate the effects of CD73 on interactions between endothelial cells and T lymphocytes found in cardiac allografts, we performed an allomismatched coculture of endothelial cells (H-2^d) and lymphocytes (H-2^b; CD73^+/+ or CD73^−/−) with or without APCP in vitro. First, we evaluated the contribution of T lymphocytes to endothelial cells on the simple coculture experiments. […] Next, we evaluated the contribution of endothelial cells to T lymphocytes utilizing transmigration coculture experiments.

In assay [2] the test system is endothelial cell line bEnd.3 with T lymphocytes. As to the kind of experiment: Allomismatched simple coculture of endothelial cells and T lymphocytes. It is filed as cell-based, mouse. The conditions noted are these: 72-h coculture with CD73−/− T-lymphocytes, addition of APCP.
Text: as §1, §2

Assay [3] concerns cardiac allografts. The assay can be described thus: Heterotopic cardiac transplantation: graft survival. It is filed as in vivo, mouse. The procedure:
Completely allomismatched murine heterotopic cardiac transplantation was performed for the present study, as previously described in detail by us^13. Two groups (n=6 in each group) were used to study donor sources of CD73 (CD73^+/+ or CD73^−/− donors into B10A recipients) and another two groups (n=6 in each group) were used to study recipient sources (B10A donors into CD73^+/+ or CD73^−/− recipients). In experiments of adenosine receptor modulators, CBA/J mice were used as donors or recipients instead of B10A mice (n=4 to 6 in each group, as indicated).
Database management and statistical analysis were performed with the Statview version 5.0 software (SAS institute Inc., Cary, N.C.). All values are expressed as means±SEM. Kaplan-Meier analysis was performed to evaluate graft survival, and survival differences were compared by a log-rank test. Comparisons among groups were performed with an unpaired Student t test or one-way analysis of variance (ANOVA) where appropriate. Values of P<0.05 were considered statistically significant.
(§3) To further evaluate the CD73-mediated contribution of specific AR subtypes during allograft rejection or CAV, we performed heterotopic cardiac transplantation using AR modulators given intraperitoneally. First, we examined which AR is acutely responsible for increased vascular leakage in the murine heterotopic cardiac transplantation model. […] Based on the results of this graft permeability assay, we selected A2AR agonists (A2A, CGS21680; A2B, NECA) to establish their potential effects on cardiac allograft rejection or vasculopathy. […] The next set of experiments was designed to measure the role of the A2BAR in CAV.

In another assay the test system is tracheal allografts. As to the kind of experiment: Orthotopic trachea transplant model: graft luminal occlusion and CD3 positive T cell infiltration. It is filed as in vivo, mouse. The source says:
Two well-established tracheal transplant models were used to study the effect of CD73 on the pathogenesis of allograft rejection. The first model was the previously described double lumen airway (orthotopic) transplant model for studying chronic airway rejection (Harada, et al, Am J Physiol Lung Cell Mol Physiol 293: […]-130, 2007; Minamoto, et al, J Exp Med 202: 283-294, 2005). Briefly, after anesthesia, donor mice were exsanguinated, and whole trachea was harvested by transecting below the cricoid cartilage distal to the […] bifurcation under sterile conditions. Recipient mice were similarly anesthetized, and the whole trachea was exposed. Distal (the seventh intercartilaginous space) and proximal (immediately subjacent to the cricoid cartilage area) orifices positioned on the recipient trachea were anastomosed with both ends of the tracheal graft. This air permissive model mimics lymphocytic bronchitis and allows studies focusing on inflammation. All surgeries were performed using a Leitz-Wild surgical microscope (Urban Engineering, Burbank, Calif.) under ×16 magnifications. Grafts were harvested at the indicated time points and embedded en bloc in Tissue Freezing Medium (Triangle Biomedical Sciences, Durham, N.C.) in Disposable Base Molds (Richard-Allan Scientific, Kalamazoo, Mich.) in liquid nitrogen and stored at -80° C. until the time of analysis. For the orthotopic model histochemical staining was performed for elastin (Accustain; Sigma-Aldrich) to determine graft luminal occlusion on 5-μm-thick sections. Immunostaining was also performed using, serial adjacent sections from each group, with primary antibodies directed against a pan-T-cell marker (hamster anti-mouse CD3; BD Pharmingen, San Diego, Calif.). Morphometric measurements of cross-sectional areas were performed by blindly tracing both epithelial and subepithelial areas using a computer-assisted image analysis system (AxoCamHR; Carl Zeiss Microimaging, Thornwood, N.Y.). […]-130, 2007). Quantitative analysis of T cell infiltration was performed by manually counting the number of CD3-positive cells in epithelial and subepithelial layer under high-power magnified fields. […] The doses of the adenosine-receptor agonists' were chosen according to previous studies ([…], et al, Blood 105: 4707, 4714, 2005; Hasko, et al, Faseb J 14: 2065-2074, 2000; Satoh, et al, Pancreas 24: 75-82, 2002; Satoh, Gastroenterology 119: 829-836, 2000). The adenosine receptor agonists and antagonists were obtained from Sigma Chemicals (St. Louis, Mo.).

In assay [4] the test system is cardiac allografts. The assay can be described thus: Heterotopic cardiac transplantation: cardiac allograft vasculopathy, luminal occlusion of graft coronary arteries. The class given is in vivo, mouse. Conditions: day 30 post-transplantation, both CD73+/+ and CD73−/− donors or recipients, vs wild-type non-treatment controls. The procedure: Completely allomismatched murine heterotopic cardiac transplantation was performed for the present study, as previously described in detail by us^13. Two groups (n=6 in each group) were used to study donor sources of CD73 (CD73^+/+ or CD73^−/− donors into B10A recipients) and another two groups (n=6 in each group) were used to study recipient sources (B10A donors into CD73^+/+ or CD73^−/− recipients). In experiments of adenosine receptor modulators, CBA/J mice were used as donors or recipients instead of B10A mice (n=4 to 6 in each group, as indicated). […]
as §3

[5] abbreviates: CD73−/− donors or recipients, compared with wild-type non-treatment controls.
Setting [6] is: compared with non-treatment controls.

For the molecule `CCOC(=O)C1=C(C)NC(c2ccccc2)=C(C(=O)OCc2ccccc2)C1C#Cc1ccccc1` (racemic) [MRS 1191, 3-Ethyl 5-benzyl 2-methyl-6-phenyl-4-phenylethynyl-1,4-(±)-dihydropyridine-3,5-dicarboxylate], in the assay on IFN-γ and IL-2 mRNA, the “expression of IFN-γ mRNA” value was “did not affect”.

As to `Nc1ncnc2c1ncn2[C@@H]1O[C@H](COP(=O)(O)CP(=O)(O)O)[C@@H](O)[C@H]1O` [APCP], the “transmigration of T-lymphocytes” value in assay [1] (24-h coculture of CD73−/− T-lymphocytes) is “significantly enhanced”. Besides, the “IFN-γ mRNA upregulation in post-transmigrated T-lymphocytes” value in assay [1] (coculture of CD73−/− T-lymphocytes) is given as “no significant enhancement”. Besides, in assay [2], the “endothelial cell TNF-α mRNA upregulation” value was “significantly enhanced” and the “endothelial cell VCAM-1 mRNA upregulation” value is “significantly enhanced”.

With `CCNC(=O)[C@H]1O[C@@H](n2cnc3c(N)nc(NCCc4ccc(CCC(=O)O)cc4)nc32)[C@H](O)[C@@H]1O` [CGS-21680, 2-p-(2-carboxyethyl) phenethylamino-5′-N-ethylcarboxamidoadenosine], the values for the graft survival result in the assay on cardiac allografts [3] (setting [5]) and with cardiac allografts [3] (setting [6]) were “no significant increase” and “significantly increased”, respectively. In the assay with IFN-γ and IL-2 mRNA, the “expression of IFN-γ mRNA” value is listed as “down-regulated”. Besides, the “expression of IL-2 mRNA” value in the assay with IFN-γ and IL-2 mRNA (wild type allografts) is reported as “down-regulated”. The “CD3 positive cell infiltrations” value with tracheal allografts (CD73−/− allografts, mean±SEM) is listed as 79±28; with tracheal allografts (wild type allografts, compared with vehicle), “less”. Also, the luminal obliteration in the assay with tracheal allografts (CD73−/− allografts, mean±SEM) is 36±3%. The graft luminal obliteration result in the assay on tracheal allografts (wild type allografts, compared with vehicle, 1 week after transplantation, i.p. every 12 hours) was “significantly reduced”.

On to `CNC(=O)[C@H]1O[C@@H](n2cnc3c(NCc4cccc(I)c4)nc(Cl)nc32)[C@H](O)[C@@H]1O` [Cl-IBMECA, 2-chloro-N^6-(3-iodobenzyl)adenosine-5′-N-methyluronamide], for which the “expression of IFN-γ mRNA” value in the assay with IFN-γ and IL-2 mRNA is recorded as “did not affect”.

Take `CCNC(=O)[C@H]1O[C@@H](n2cnc3c(N)ncnc32)[C@H](O)[C@@H]1O` [NECA]: the “severity of luminal occlusion” value in the assay with cardiac allografts [4] is “significantly attenuated”. In addition, the graft survival entry in the assay with cardiac allografts [3] (setting [5]) and in the assay on cardiac allografts [3] (setting [6]) was “significantly increased” throughout. Besides, the “graft survival compared with CGS21680-treated recipients” value in the assay with cardiac allografts [3] (NECA-treated vs CGS21680-treated recipients) was “significantly longer”.

With `Nc1nc2c(cnn2CCc2ccccc2)c2nc(-c3ccco3)nn12` [SCH-58261, 5-Amino-7-(β-phenylethyl)-2-([…])pyrazolo(4,3-e)-1,2,4-triazolo1,5-c pyrimidine], the “expression of IFN-γ mRNA” value in the assay with IFN-γ and IL-2 mRNA was “did not affect”.
